Literature values in patent publication US11369597B2, “Methods for treating pancreatic cancer using combination therapies” (Ipsen Biopharm Ltd., priority 2012, dated 2022).
Like-named read-outs stand apart in the source and are kept apart here. Values belong to the molecule of their own block, whether it stands above or below them.

Key:
[1] = tested on: advanced pancreatic cancer; details: first-line
[2] = tested on: advanced and metastatic pancreatic adenocarcinoma
[3] = for incidence of grade 4 neutropenia: 350 mg/m^2 once every-3-weeks
[4] = metabolite formed by carboxylesterases

SMILES: Nc1ccn([C@@H]2O[C@H](CO)[C@@H](O)C2(F)F)c(=O)n1 [gemcitabine]
1-year survival rate [1]: 17%
median survival [1]: 5.9 months
median overall prolongation of survival ([2]; second line after 5-fluorouracil): 3.9 months
1-year survival rate ([2]; single-agent, first-line): about 20%

grade 4 neutropenia ([3]; patients homozygous for the wild-type allele (UGT1A1 6/6 genotype)): no grade 4 neutropenia was observed
SMILES: CCc1c2c(nc3ccc(OC(=O)N4CCC(N5CCCCC5)CC4)cc13)-c1cc3c(c(=O)n1C2)COC(=O)[C@]3(O)CC [irinotecan, 7-ethyl-10-[4-(1-piperidino)-1-piperidino] carbonyloxycampothecin]
incidence of grade 4 neutropenia ([3]; patients heterozygous (UGT1A1 6/7 genotype)): 12.5%
incidence of grade 4 neutropenia ([3]; patients homozygous for the UGT1A1*28 allele): 50%

SMILES: CCc1c2c(nc3ccc(O)cc13)-c1cc3c(c(=O)n1C2)COC(=O)[C@]3(O)CC [SN-38]
SN-38 more active than irinotecan [4]: 100-1000 fold
